Reference: US20220054494A1, “METHODS FOR TREATING BLADDER AND URETHRA DYSFUNCTION AND DISEASE” (University of Pittsburgh - Of the Commonwealth System of …, priority 2019, published 2022)
“Also recorded” adds a separate entry of the source.

Tests used:
[1] = tested on: CYP-treated rats; experiment: Images of intact bladders in CYP cystitis model (inflammation and bleeding); assay type: in vivo, rat; conditions: CYP (75 mg/kg i.p.) female Sprague Dawley rats; oral 8-AG 5 mg/kg/day starting one week prior to CYP
Method: (§1) Animals: Female Sprague Dawley rats were employed in this example (Charles River; Wilmington, Mass.). Three groups of animals were included. Group 1 received an i.p. injection of saline and was used as a control; groups 2 and 3 received an i.p. injection of cyclophosphamide (CYP, SIGMA-ALDRICH®, St Louis, Mo., day 0, 3, 6, sacrifice day 8, 75 mg/kg, i.p.) with group 3 treated with oral 8-AG (5 mg/kg/day; starting one week prior to CYP). CYP induced bladder inflammation and is a well-established pre-clinical model for BPS/IC.

[2] = tested on: mitofusin 2 (MFN2); experiment: Western immunoblotting, mitofusin 2; assay type: in vivo, rat; conditions: aged rats; oral 8-AG 5 mg/kg/day, 6 weeks
Method: Western immunoblotting: One half of each bladder preparation was homogenized using Lysing Matrix D in a FastPrep 24 instrument (MP Biomedicals, Solon, Ohio) in HBSS (5 mM KCl, 0.3 mM KH2PO4, 138 mM NaCl, 4 mM NaHO3, 0.3 mM Na2HCO3, 0.3 mM Na2HPO4, 5.6 mM glucose and 10 mM Hepes, pH 7.4) containing complete protease inhibitor cocktail (1 tablet/10 ml, ROCHE®, Indianapolis, Ind.)) and phosphatase inhibitor cocktail (SIGMA®, 1:100). After centrifugation (13000 rpm; 15 min at 4° C.), the membrane protein fraction was prepared by suspending the membrane pellets in lysis buffer containing 0.3 M NaCl, 50 mM Tris-HCl (pH 7.6) and 0.5% Triton X-100 and the same concentration of protease inhibitors as above. The suspensions were incubated on ice and centrifuged (13000 rpm; 15 min at 4° C.). The protein concentrations of the combined supernatants were determined using the PIERCE® BCA protein assay (THERMO SCIENTIFIC®, Rockford, Ill.). […] As a loading control, total protein per sample was determined using Bio-Rad® Stain Free SDS-PAGE gel technology. UV-activated protein fluorescence was imaged on a CHEMIDOC® MP (BIO-RAD®). […] The volume (intensity) of each protein species was determined and normalized to total protein using Image Lab software (BIO-RAD®).

[3] = tested on: CYP-treated rats; experiment: Laser Doppler bladder blood flow in CYP cystitis model; assay type: in vivo, rat; conditions: CYP (75 mg/kg i.p.) female Sprague Dawley rats; oral 8-AG 5 mg/kg/day starting one week prior to CYP
Method: as §1
Blood Flow Changes: Real-time bladder blood perfusion (1 mm^3 tissue) was accomplished using a BLF22D laser Doppler flowmeter (Transonic Systems, Inc) with a surface probe (TypeS-APLPHS) applied to the serosal surface of the bladder (apex and neck) wall using Doppler light shift from moving RBCs to analyze flow by the Bonner algorithm. This method gives robust, non-invasive microvascular flow signals in the bladder wall of anesthetized rats.

[4] = tested on: bladder blood flow; experiment: Laser Doppler flowmeter bladder blood flow, aged rats; assay type: in vivo, rat; conditions: oral 8-AG 5 mg/kg/day, 6 weeks, compared with young rats
Description: Vascular Changes: Bladders that had been perfused transcardially with PBS buffer containing 20 nm yellow-green fluorescent beads (THERMO FISHER®, F8787) to highlight the vasculature were fixed then cleared by removing lipids and dissolving light-absorbing chromophores within the tissue. Volumetric data were acquired using a Caliber ID RS-G4 ribbon scanning confocal microscope (NIKON® Inc, Tokyo, Japan), which can acquire large-area images (uses a high nA (1.0) long working distance (8 mm) with low magnification (20×)). This affords the advantage of interrogating whole tissues in a three-dimensional environment without the need to section. Real-time blood perfusion (1 mm3 tissue) was accomplished using a BLF22D laser Doppler flowmeter (Transonic Systems, Inc) with a surface probe (TypeS-APLPHS) applied to the serosal surface of the bladder (apex and neck) wall using Doppler light shift from moving RBCs to analyze flow by the Bonner algorithm. This method gives robust, non-invasive microvascular flow signals in the bladder wall of anesthetized rats.

[5] = molecular target: PNPase (Homo sapiens, UniProt P00491); conditions: Jackson et al., J Am Heart Assoc 2018; cited from earlier work
[6] = tested on: deoxycorticosterone/salt-induced hypertension; conditions: chronic oral treatment of rats; Jackson et al. 2016; cited from earlier work
[7] = tested on: bladder wall; experiment: Bladder volume measurements (bladder wall volume / thickness); assay type: in vivo, rat
Method: Bladder volume measurements: Changes in bladder wall thickness in all groups (young, aged, and aged+treatment) were measured by placing displacement markers on the bladder surface (in situ) while volume measurements were recorded. Custom computer algorithms were used to calculate longitudinal, circumferential, and area strain from measurements of surface marker positions.

Chain of PNPase (P00491 whole entry): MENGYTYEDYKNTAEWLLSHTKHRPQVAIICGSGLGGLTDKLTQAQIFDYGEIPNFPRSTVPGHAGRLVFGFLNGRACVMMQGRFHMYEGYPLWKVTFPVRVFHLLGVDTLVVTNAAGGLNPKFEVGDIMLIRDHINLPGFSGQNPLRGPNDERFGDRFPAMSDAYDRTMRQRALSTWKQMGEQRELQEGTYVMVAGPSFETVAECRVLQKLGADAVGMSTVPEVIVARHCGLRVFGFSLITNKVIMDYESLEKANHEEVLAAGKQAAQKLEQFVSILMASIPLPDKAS

SMILES: Nc1nc2[nH]c(N)nc2c(=O)[nH]1 [8-AG, 8-Aminoguanine]
- bladder inflammation and bleeding (images of intact bladders) [1]: nearly abolished
- mitofusin 2 (MFN2) in bladder mucosa [2]: reversed or restored to levels similar to the younger state; also recorded: restored changes similar to a younger state
- bladder blood flow (CYP-induced hyperemia) [3]: abolished; also recorded: reversed to a control state
- bladder blood flow (Doppler flowmeter) [4]: no significant difference; also recorded: reversed to a younger state
- PNPase inhibition (mechanism of diuresis, natriuresis, glucosuria) [5]: inhibiting
- development of deoxycorticosterone/salt-induced hypertension [6]: attenuate
- bladder wall volume ([7]; aged Fisher 344 rats, 8-AG 5 mg kg/day via drinking water, 1 month): restored to that of a younger state
- bladder wall width / thickness ([7]; aged rats, oral 8-AG 5 mg/kg/day, 6 weeks): restored to that of a younger state
